Measurements reported in patent US20260285853A1, “COMPOUNDS AND METHODS FOR MODULATING SPLICING” (REMIX THERAPEUTICS INC., priority 2023, published 2026).

Legend:
MYB mRNA = experiment: Splicing RT-qPCR assay, canonical (CJ) and alternative (AJ) junction mRNA, K562 cells; assay type: cell-based; details: Homo sapiens, K562.3 cells, 24 hours; for AC50: read-out: MYB AJ (AC50, increase in AJ mRNA); for IC50: read-out: MYB CJ (IC50, decrease in CJ mRNA)
Procedure, shortened: (§1)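 Readout is one-step RT-qPCR of canonical and alternative exon junctions, housekeeper-normalized (GAPDH or GUSB), ΔΔCt against DMSO giving RQ and percentage response over set ΔCt assay windows. Compounds dosed 24 h to K562 cells, 11 points, 3-fold, max 10 uM, DMSO ≤0.25%.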

HTT mRNA = experiment: as above; assay type: cell-based; details: Homo sapiens, K562.3 cells, 24 hours; for AC50: read-out: HTT AJ (AC50, increase in AJ mRNA); for IC50: read-out: HTT CJ (IC50, decrease in CJ mRNA)
Procedure, shortened: as §1

SMILES | AC50 (MYB mRNA) | IC50 (MYB mRNA) | AC50 (HTT mRNA) | IC50 (HTT mRNA)
Cc1cn2cc(NC(=O)c3ccc(C4CCC(NC5CC5)CC4)c4cn(C)nc34)cc(F)c2n1 (stereo not drawn) [Compound 192, 4-[4-(cyclopropylamino)cyclohexyl]-N-(8-fluoro-2-methyl-imidazo[1,2-a]pyridin-6-yl)-2-methyl-indazole-7-carboxamide] | 100 to 1000 nM | 100 to 1000 nM | 1000 to 10000 nM | 100 to 1000 nM
CCNC1CCN(c2ccc(C(=O)Nc3cc(F)c4nc(CO)cn4c3)c3nn(C)cc23)CC1 [Compound 193, 4-[4-(ethylamino)-1-piperidyl]-N-[8-fluoro-2-(hydroxymethyl)imidazo[1,2-a]pyridin-6-yl]-2-methyl-indazole-7-carboxamide] | 1000 to 10000 nM | 100 to 1000 nM | > 10000 nM | > 10000 nM
Cc1cn2cc(NC(=O)c3ccc(C4CNCCO4)c4[nH]cnc34)cc(F)c2n1 (stereo not drawn) [Compound 194, N-(8-fluoro-2-methyl-imidazo[1,2-a]pyridin-6-yl)-7-morpholin-2-yl-1H-benzimidazole-4-carboxamide] | 100 to 1000 nM | 100 to 1000 nM | 1000 to 10000 nM | 1000 to 10000 nM
CCNC1CCN(c2cc(F)c(C(=O)Nc3cc(F)c4nc(C)cn4c3)c3ccoc23)CC1 [Compound 195, 7-[4-(ethylamino)-1-piperidyl]-5-fluoro-N-(8-fluoro-2-methylimidazo[1,2-a]pyridin-6-yl)-benzofuran-4-carboxamide] | > 10000 nM | > 10000 nM | > 10000 nM | > 10000 nM
CCNC1CCN(c2ccc(C(=O)Nc3cc(F)c4nc(C)cn4c3)c3nn(C)nc23)CC1 [Compound 196, 7-[4-(ethylamino)piperidin-1-yl]-N-(8-fluoro-2-methyl-imidazo[1,2-a]pyridin-6-yl)-2-methyl-1,2,3-benzotriazole-4-carboxamide] | 100 to 1000 nM | 100 to 1000 nM | 100 to 1000 nM | 100 to 1000 nM
CNC1(C)CCN(c2ccc(C(=O)Nc3cn4cc(C)nc4c(OC)n3)c3nn(C)cc23)CC1 [Compound 197, N-(8-methoxy-2-methylimidazo[1,2-a]pyrazin-6-yl)-2-methyl-4-(4-methyl-4-(methylamino)piperidin-1-yl)-2H-indazole-7-carboxamide] | < 100 nM | < 100 nM | < 100 nM | < 100 nM
CCNC1CCN(c2ccc(C(=O)Nc3cc(F)c4nc(C)cn4c3)c3c2nnn3C)CC1 [Compound 198, 4-(4-(ethylamino)piperidin-1-yl)-N-(8-fluoro-2-methylimidazo[1,2-a]pyridin-6-yl)-1-methyl-1H-benzo[d][1,2,3]triazole-7-carboxamide 2,2,2-trifluoroacetate] | > 10000 nM | > 10000 nM | > 10000 nM | > 10000 nM
CCNC1CCN(c2ccc(C(=O)Nc3cc(F)c4nc(C)cn4c3)c3nnn(C)c23)CC1 [Compound 199, 7-[4-(ethylamino)-1-piperidyl]-N-(8-fluoro-2-methylimidazo[1,2-a]-pyridin-6-yl)-1-methylbenzotriazole-4-carboxamide] | 100 to 1000 nM | 100 to 1000 nM | > 10000 nM | > 10000 nM
CCNC1CCN(c2ccc(C(=O)Nc3cc(F)c4nc(C)oc4c3)c3nn(C)cc23)CC1 [Compound 200, 4-(4-(ethylamino)piperidin-1-yl)-N-(4-fluoro-2-methylbenzo[d]-oxazol-6-yl)-2-methyl-2H-indazole-7-carboxamide] | < 100 nM | 100 to 1000 nM | 1000 to 10000 nM | 100 to 1000 nM
CCNC1CCN(c2ccc(C(=O)Nc3cc(F)c4nc(CC)cn4c3)c3nn(C)cc23)CC1 [Compound 201, 4-[4-(ethylamino)-1-piperidyl]-N-(2-ethyl-8-fluoro-imidazo[1,2-a]pyridin-6-yl)-2-methyl-indazole-7-carboxamide] | 1000 to 10000 nM | 1000 to 10000 nM | 1000 to 10000 nM | 1000 to 10000 nM
CCNC1CCN(c2ccc(C(=O)Nc3cc(F)c4nc(CF)cn4c3)c3nn(C)cc23)CC1 [Compound 202, 4-[4-(ethylamino)-1-piperidyl]-N-[8-fluoro-2-(fluoromethyl)imidazo[1,2-a]pyridin-6-yl]-2-methyl-indazole-7-carboxamide] | 100 to 1000 nM | < 100 nM | 1000 to 10000 nM | 1000 to 10000 nM
Cc1cn2cc(NC(=O)c3ccc(N4CCC(NC5CC56CC6)CC4)c4cn(C)nc34)cc(F)c2n1 (stereo not drawn) [Compound 203, N-(8-fluoro-2-methyl-imidazo[1,2-a]-pyridin-6-yl)-2-methyl-4-[4-(spiro[2.2]pentan-2-ylamino)-1-piperidyl] indazole-7-carboxamide] | < 100 nM | < 100 nM | 1000 to 10000 nM | 100 to 1000 nM
Cc1cn2cc(NC(=O)c3ccc(N4CCC(NC5CC5C)CC4)c4cn(C)nc34)cc(F)c2n1 (stereo not drawn) [Compound 204, N-(8-fluoro-2-methyl-imidazo[1,2-a]pyridin-6-yl)-2-methyl-4-[4-[(2-methyl-cyclopropyl)amino]-1-piperidyl] indazole-7-carboxamide] | < 100 nM | < 100 nM | 100 to 1000 nM | 100 to 1000 nM
Cc1cn2cc(NC(=O)c3ccc(N4CCC(NC5CC5(C)C)CC4)c4cn(C)nc34)cc(F)c2n1 (stereo not drawn) [Compound 205, 4-(4-((2,2-dimethylcyclopropyl)amino)piperidin-1-yl)-N-(8-fluoro-2-methylimidazo[1,2-a]pyridin-6-yl)-2-methyl-2H-indazole-7-carboxamide] | < 100 nM | < 100 nM | 1000 to 10000 nM | 1000 to 10000 nM
CCNC1CCN(c2ccc(C(=O)Nc3cn4cc(C)nc4c(OC)n3)c3nn(C)cc23)CC1 [Compound 206, 4-[4-(ethylamino)-1-piperidyl]-N-(8-methoxy-2-methyl-imidazo[1,2-a]pyrazin-6-yl)-2-methyl-indazole-7-carboxamide] | < 100 nM | < 100 nM | 100 to 1000 nM | 100 to 1000 nM
COc1c(NC(=O)c2c(F)cc(N3CCC(NC4CC4)CC3)c3cn(C)nc23)cn2cc(C)nc2c1F [Compound 207, 4-[4-(cyclopropylamino)-1-piperidyl]-6-fluoro-N-(8-fluoro-7-methoxy-2-methyl-imidazo[1,2-a]pyridin-6-yl)-2-methyl-indazole-7-carboxamide] | < 100 nM | < 100 nM | < 100 nM | < 100 nM
COc1nc2c(C(=O)Nc3cc(F)c4nc(C)cn4c3)ccc(N3CCC(N)CC3)c2s1 [Compound 208, 7-(4-aminopiperidin-1-yl)-N-(8-fluoro-2-methylimidazo[1,2-a]pyridin-6-yl)-2-methoxybenzo[d]thiazole-4-carboxamide] | < 100 nM | < 100 nM | 100 to 1000 nM | 100 to 1000 nM
Cc1cn2cc(NC(=O)c3ccc(N4CCC(NC5CC5)CC4)c4cc(C)nn34)cc(F)c2n1 [Compound 209, 4-[4-(cyclopropylamino)-1-piperidyl]-N-(8-fluoro-2-methyl-imidazo[1,2-a]pyridin-6-yl)-2-methyl-pyrazolo[1,5-a]pyridine-7-carboxamide] | < 100 nM | < 100 nM | 100 to 1000 nM | 100 to 1000 nM
Cc1cn2cc(NC(=O)c3ccc(N4CCC(NC5CC5)CC4)n4cc(C)nc34)cc(F)c2n1 [Compound 210, 5-(4-(cyclopropylamino)piperidin-1-yl)-N-(8-fluoro-2-methylimidazo[1,2-a]pyridin-6-yl)-2-methylimidazo[1,2-a]-pyridine-8-carboxamide] | 100 to 1000 nM | < 100 nM | 100 to 1000 nM | 100 to 1000 nM
Cc1cn2cc(NC(=O)c3ccc(N4C[C@@H](C)N[C@@H](C)C4)c4[nH]cnc34)cc(F)c2n1 [Compound 220, 7-[(3R,5S)-3,5-dimethylpiperazin-1-yl]-N-(8-fluoro-2-methyl-imidazo[1,2-a]pyridin-6-yl)-1H-1,3-benzodiazole-4-carboxamide] | 100 to 1000 nM | 100 to 1000 nM | > 10000 nM | 1000 to 10000 nM
Cc1cn2cc(NC(=O)c3ccc(N4C[C@H](C)N[C@@H](C)C4)c4[nH]cnc34)cc(F)c2n1 [Compound 221, 7-[(3S,5S)-3,5-dimethylpiperazin-1-yl]-N-(8-fluoro-2-methylimidazo[1,2-a]pyridin-6-yl)-1H-1,3-benzodiazole-4-carboxamide] | 100 to 1000 nM | 100 to 1000 nM | > 10000 nM | > 10000 nM
Cc1cn2cc(NC(=O)c3ccc(N4C[C@@H](C)N[C@@H](C)C4)c4[nH]c(C)nc34)cc(F)c2n1 [Compound 225, 7-[(3R,5S)-3,5-dimethylpiperazin-1-yl]-N-(8-fluoro-2-methylimidazo[1,2-a]pyridin-6-yl)-2-methyl-1H-1,3-benzodiazole-4-carboxamide] | 1000 to 10000 nM | 1000 to 10000 nM | 1000 to 10000 nM | 1000 to 10000 nM
Cc1cn2nc(C(=O)Nc3ccc(N4C[C@@H](C)N[C@@H](C)C4)c4cc[nH]c34)cc(C)c2n1 [Compound 237, N-(4-[(3R,5S)-3,5-dimethylpiperazin-1-yl]-1H-indol-7-yl)-2,8-dimethylimidazo[1,2-b]pyridazine-6-carboxamide] | 1000 to 10000 nM | 1000 to 10000 nM | 1000 to 10000 nM | 1000 to 10000 nM
Cc1cn2cc(NC(=O)c3ccc(N4C[C@H](C)N[C@@H](C)C4)c4[nH]nnc34)cc(F)c2n1 [Compound 242, 7-[(3S,5S)-3,5-dimethylpiperazin-1-yl]-N-(8-fluoro-2-methyl-imidazo[1,2-a]pyridin-6-yl)-1H-benzotriazole-4-carboxamide] | > 10000 nM | > 10000 nM | > 10000 nM | > 10000 nM
